Test results taken from US9199959B2, “HIV replication inhibitor” (Shionogi & Co., Ltd., priority 2011, dated 2015).

Key:
CYP3A4 = biological target: T1, CYP3A4 (Homo sapiens, UniProt P08684); test: CYP inhibition assay, terfenedine hydroxylation; format: in vitro ADME; conditions: pooled human liver microsomes, probe terfenedine (hydroxylation), 1 μmol/L, pooled human hepatic microsome
T1 construct: enzyme, pooled human hepatic microsome 0.2 mg protein/mL; from tissue; host or cells: pooled human liver microsomes
Protocol: Using commercially available pooled human hepatic microsome, and employing, as markers, 7-ethoxyresorufin O-deethylation (CYP1A2), tolbutamide methyl-hydroxylation (CYP2C9), mephenytoin 4′-hydroxylation (CYP2C19), dextromethorphan O-demethylation (CYP2D6), and terfenedine hydroxylation (CYP3A4) as typical substrate metabolism reactions of human main five CYP enzyme forms (CYP1A2, 2C9, 2C19, 2D6, 3A4), an inhibitory degree of each metabolite production amount by a test compound was assessed.
The reaction conditions were as follows: substrate, 0.5 μmol/L ethoxyresorufin (CYP1A2), 100 μmol/L tolbutamide (CYP2C9), 50 μmol/L S-mephenytoin (CYP2C19), 5 μmol/L dextromethorphan (CYP2D6), 1 μmol/L terfenedine (CYP3A4); reaction time, 15 minutes; reaction temperature, 37° C.; enzyme, pooled human hepatic microsome 0.2 mg protein/mL; test drug concentration, 1, 5, 10, 20 μmol/L (four points).
Each five kinds of substrates, human hepatic microsome, and a test drug in 50 mmol/L Hepes buffer as a reaction solution was added to a 96-well plate as the composition as described above, NADPH, as a cofactor was added to initiate metabolism reactions as markers and, after the incubation at 37° C. for 15 minutes, a methanol/acetonitrile=1/1 (v/v) solution was added to stop the reaction. After the centrifugation at 3000 rpm for 15 minutes, resorufin (CYP1A2 metabolite) in the supernatant was quantified by a fluorescent multilabel counter and tolbutamide hydroxide (CYP2C9 metabolite), mephenytoin 4′ hydroxide (CYP2C19 metabolite), dextrorphan (CYP2D6 metabolite), and terfenadine alcohol (CYP3A4 metabolite) were quantified by LC/MS/MS.
A reaction system containing only DMSO which is a solvent for dissolving a drug was adopted as a control (100%), and the remaining activity (%) was calculated, then IC50 was calculated by reverse presumption with a logistic model using a concentration and an inhibition rate.

[1] = Metabolism stability test, human liver microsomes; format: in vitro ADME; conditions: 30 minutes, 37° C., amount at 0 minute = 100%
Protocol: Commercially available pooled human hepatic microsomes and a test compound were reacted for a constant time, then a remaining rate was calculated by comparing a reacted sample and an unreacted sample, thereby a degree of metabolism of the test compound in liver was assessed. A reaction was performed (oxidative reaction) at 37° C. for 0 minute or 30 minutes in the presence of 1 mmol/L NADPH in 0.2 mL of a buffer (50 mmol/L Tris-HCl, pH 7.4, 150 mmol/L potassium chloride, 10 mmol/L magnesium chloride) containing 0.5 mg protein/mL of human liver microsomes. After the reaction, 50 μl, of the reaction solution was added to 100 μL of a methanol/acetonitrile=1/1 (v/v), mixed and centrifuged at 3000 rpm for 15 minutes. The test compound in the supernatant was quantified by LC/MS/MS, and a remaining amount of the test compound after the reaction was calculated, letting a compound amount at 0 minute reaction time to be 100%. Hydrolysis reaction was performed in the absence of NADPH and glucuronidation reaction was in the presence of 5 mM UDP-glucuronic acid in place of NADPH, followed by similar operations.

[2] = Metabolism stability test, rat liver microsomes; format: in vitro ADME; conditions: amount at 0 minute = 100%
[3] = Solubility test, 1% DMSO addition, artificial intestinal juice pH 6.8; format: physicochemical; conditions: artificial intestinal juice with 1% DMSO, fassgf or other biorelevant, kinetic from dmso stock; pH 6.8, 1% DMSO addition, 16 hours at 25° C.
Protocol: The solubility of each compound was determined under 1% DMSO addition conditions. A 10 mmol/L solution of the compound was prepared with DMSO, and 6 μL of the solution was added to 594 μL of an artificial intestinal juice (water and a 118 mL solution of 0.2 mol/L NaOH reagent are added to 250 mL of 0.2 mol/L potassium dihydrogen phosphate reagent to reach 1000 mL) with a pH of 6.8. The mixture is left standing for 16 hours at 25° C., and the mixture is vacuum-filtered. The filtrate is two-fold diluted with methanol/water=1/1 (v/v), and the compound concentration in the filtrate is measured with HPLC or LC/MS/MS by the absolute calibration method.

[4] = biological target: T2, human ether-a-go-go related gene (hERG) channel (Homo sapiens, UniProt Q12809); test: hERG test, whole cell patch clamp; format: cell-based; conditions: HEK293 cells expressing hERG channel
T2 construct: expressed in transfected cells; host or cells: HEK293
Excerpt: For the purpose of assessing risk of an electrocardiogram QT interval prolongation, effects on delayed rectifier K+ current (IKr), which plays an important role in the ventricular repolarization process of the compound of the present invention, was studied using HEK293 cells expressing human ether-a-go-go related gene (hERG) channel.
After a cell was retained at a membrane potential of −80 mV by whole cell patch clamp method using an automated patch clamp system (PatchXpress 7000A, Axon Instruments Inc.), IKr induced by depolarization pulse stimulation at +40 mV for 2 seconds and, further, repolarization pulse stimulation at −50 mV for 2 seconds was recorded. […] From the recording IKr, an absolute value of the tail peak current was measured based on the current value at the resting membrane potential using an analysis software (DataXpress ver. 1, Molecular Devices Corporation). Further, the inhibition relative to the tail peak current before application of the test substance was calculated, and compared with the vehicle-applied group (0.1% dimethyl sulfoxide solution) to assess influence of the test substance on IKr.

T1 sequence (P08684 whole entry): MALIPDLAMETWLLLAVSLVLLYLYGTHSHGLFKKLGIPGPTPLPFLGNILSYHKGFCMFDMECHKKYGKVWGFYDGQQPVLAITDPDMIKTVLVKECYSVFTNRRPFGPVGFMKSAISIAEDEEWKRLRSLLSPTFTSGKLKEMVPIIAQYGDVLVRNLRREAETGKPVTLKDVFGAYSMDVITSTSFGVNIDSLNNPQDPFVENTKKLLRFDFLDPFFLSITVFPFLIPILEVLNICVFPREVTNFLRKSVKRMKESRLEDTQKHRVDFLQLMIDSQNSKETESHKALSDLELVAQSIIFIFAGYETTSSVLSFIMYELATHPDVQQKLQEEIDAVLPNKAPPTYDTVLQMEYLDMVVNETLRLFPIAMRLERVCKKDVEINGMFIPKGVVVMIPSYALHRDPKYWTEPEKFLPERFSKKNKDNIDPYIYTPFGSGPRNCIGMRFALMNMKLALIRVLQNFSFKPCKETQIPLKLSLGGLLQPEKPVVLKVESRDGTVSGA
T2 sequence (Q12809 whole entry): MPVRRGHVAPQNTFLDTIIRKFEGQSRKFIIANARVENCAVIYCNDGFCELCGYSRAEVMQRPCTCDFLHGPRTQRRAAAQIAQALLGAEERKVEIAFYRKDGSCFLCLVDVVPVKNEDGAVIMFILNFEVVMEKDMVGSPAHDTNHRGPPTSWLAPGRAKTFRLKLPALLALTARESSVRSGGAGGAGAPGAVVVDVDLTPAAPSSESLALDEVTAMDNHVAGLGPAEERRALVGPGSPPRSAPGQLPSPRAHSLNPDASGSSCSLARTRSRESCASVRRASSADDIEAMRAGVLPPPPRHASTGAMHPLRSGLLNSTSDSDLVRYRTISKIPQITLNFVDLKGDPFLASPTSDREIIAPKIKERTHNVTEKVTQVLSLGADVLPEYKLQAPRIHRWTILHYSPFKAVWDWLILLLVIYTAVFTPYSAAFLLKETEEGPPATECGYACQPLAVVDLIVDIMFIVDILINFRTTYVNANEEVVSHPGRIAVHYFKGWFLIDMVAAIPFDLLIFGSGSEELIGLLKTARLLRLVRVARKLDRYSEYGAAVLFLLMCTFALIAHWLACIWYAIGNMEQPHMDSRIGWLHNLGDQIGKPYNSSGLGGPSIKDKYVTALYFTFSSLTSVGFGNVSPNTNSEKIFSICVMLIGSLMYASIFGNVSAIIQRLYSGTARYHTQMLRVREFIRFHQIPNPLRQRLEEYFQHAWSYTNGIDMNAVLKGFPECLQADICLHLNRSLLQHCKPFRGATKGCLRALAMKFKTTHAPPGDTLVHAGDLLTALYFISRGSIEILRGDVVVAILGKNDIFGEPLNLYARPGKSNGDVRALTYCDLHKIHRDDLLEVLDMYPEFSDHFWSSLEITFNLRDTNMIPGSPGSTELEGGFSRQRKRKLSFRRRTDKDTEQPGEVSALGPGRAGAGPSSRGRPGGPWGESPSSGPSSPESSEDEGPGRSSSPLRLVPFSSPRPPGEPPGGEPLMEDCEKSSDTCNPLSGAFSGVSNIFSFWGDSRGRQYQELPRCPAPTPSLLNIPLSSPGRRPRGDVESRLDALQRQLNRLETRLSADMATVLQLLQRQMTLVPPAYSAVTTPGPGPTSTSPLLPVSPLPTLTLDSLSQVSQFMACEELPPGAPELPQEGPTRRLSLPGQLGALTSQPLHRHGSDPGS

CC(=O)Nc1c(C)c(C(OC(C)(C)C)C(=O)O)c(-c2ccc(C)c(C)c2)c(C)c1-c1ccc(C)c(C)c1 (centres unmarked) [Compound I-6]
IC50 at 15 min (CYP3A4): ≥ 20 µM | remaining amount of compound in liver microsomes of human [1]: 79% | remaining amount of compound in liver microsomes of rat [2]: 58% | solubility at 16 h [3]: ≥ 50 µM | inhibition ratio of IKr tail peak current [4]: 3.5%
